Data as given in patent US20220257578A1, “COMPOSITION AND METHOD FOR TREATING CANDIDA AURIS INFECTION” (Appili Therapeutics Inc., priority 2019, published 2022).
Values after ≈ are worked out from the molar mass of the structure shown. Where two headings read alike, the source gives them in different places.

Legend:
C. auris = test: In vitro susceptibility testing according to CLSI M27-A3 (MIC); format: cell-based, Candida auris; details: for MIC50 / MIC90 / MIC: Candidozyma auris; for MIC50: lowest concentration that inhibited 50% of the isolates tested; for MIC90: lowest concentration that inhibited 90% of the isolates tested
Procedure: In vitro susceptibility testing was performed according to the CLSI M27-A3 standard, the contents of which are herein incorporated by reference, against 10 isolates available from the U.S. Food and Drug Administration Center for Disease Control Antibiotic Resistance (FDA CDC AR) Isolate Bank and 13 clinical isolates that were received for testing by the Fungus Testing Laboratory at University of Texas Health Science Center at San Antonio (UTHSCSA).
In vitro activity of T-2307, fluconazole, and caspofungin against C. auris. […] MIC50 and MIC90 are lowest concentrations that inhibited 50% and 90%, respectively, of the isolates tested. GM MIC is geometric mean MIC.

C. auris (DI 17-46) = test: Neutropenic mice with invasive candidiasis secondary to C. auris (survival arm and fungal burden arm); format: in vivo; details: for percent survival: day 21, control 0%; for kidney fungal burden (mean): control 7.09; for kidney fungal burden: control 8.04
Procedure: FIG. 1 depicts survival curves in mice inoculated intravenously with C. auris and treated with vehicle control, fluconazole 20 mg/kg PO QD, or caspofungin 10 mg/kg IP QD (A) or T-2307 at doses of 0.75 mg/kg, 1.5 mg/kg, or 3 mg/kg SC QD (B). Treatment started one day post-inoculation and continued for 7 days. Mice were then followed off therapy until day 21 post-inoculation (14 days after therapy stopped). Black square—vehicle control; white circle—fluconazole 20 mg/kg; black circle—caspofungin 10 mg/kg; inverted gray triangle T-2307 0.75 mg/kg; gray rectangle—T-2307 1.5 mg/kg; gray triangle—T-2307 3 mg/kg. N=10 mice per group.
(§1) FIG. 2 depicts graphs showing kidney (A) and brain (B) fungal burden (CFU/g) in mice with invasive candidiasis secondary to C. auris in the fungal burden arm. Colony-forming units were measured on day 8 post-inoculation after 7 days of therapy. N=10 mice in the vehicle control and treatment groups; N=5 mice in the 24-hour control group.
as §1, with “FIG. 3” for “FIG. 2”, “the survival” for “the fungal burden”, “group. Black circles represent mice that succumbed to infection prior to day 21; gray circles represent mice that survived to the survival endpoint.” for “group.”
Male Institute of Cancer Research (ICR) mice were rendered neutropenic with a single dose of 5-fluorouracil (5 mg/mouse) administered 24 hours prior to inoculation, and a clinical isolate of C. auris (DI 17-46) was used to infect mice via the lateral tail vein as previously described (Wiederhold et al. 2019. Antimicrob Agents Chemother. 63:e02233-18, the entire contents of which is herein incorporated by reference). Treatment with vehicle control, T-2307 (0.75, 1.5, or 3 mg/kg subcutaneously (SC) once daily), fluconazole (20 mg/kg per orally (PO) once daily), or caspofungin (10 mg/kg intraperitoneally (IP) once daily) began 1-day post-inoculation and continued for 7 days. In the fungal burden arm, mice were humanely euthanized on day 8 post-inoculation, and kidneys and brains were collected, weighed, and homogenized for analysis of colony-forming units (CFU/g). In the survival arm, mice were followed off therapy for 14 days, until day 21 post-inoculation. Fungal burden was also assessed in the survival arm on day 21 or on the day the mice succumbed to infection. Differences in survival were assessed by Kaplan-Meier analysis with the log-rank test. ANOVA with Tukey's post-test for multiple comparisons were used to assess for differences in fungal burden and geometric mean (GM) MIC values.

[1] = 50% inhibition endpoint, read-out: GM MIC (geometric mean MIC)
[2] = infecting clinical isolate of C. auris (DI 17-46), read-out: MIC against the infecting isolate

Structure (SMILES)	MIC50 (C. auris; 50% inhibition endpoint) [µg/mL]	MIC90 (C. auris; 50% inhibition endpoint) [µg/mL]	MIC (C. auris; [1]) [µg/mL]	MIC (C. auris; [2]) [µg/mL]	improvement in survival vs control (C. auris (DI 17-46); fluconazole 20 mg/kg PO once daily)	MIC Range (C. auris; 50% inhibition endpoint, 23 C. auris isolates, 24 hours at 35° C.) [µg/mL]	MIC50 (C. auris; 100% inhibition endpoint) [µg/mL]	MIC90 (C. auris; 100% inhibition endpoint) [µg/mL]	MIC (C. auris; 100% inhibition endpoint, read-out: GM MIC (geometric mean MIC)) [µg/mL]	percent survival (C. auris (DI 17-46); T-2307 3 mg/kg SC once daily for 7 days) [%]	kidney fungal burden (mean) (C. auris (DI 17-46); fungal burden arm, day 8 post-inoculation, T-2307 3 mg/kg SC) [log10 CFU/g]	nature of activity (kidney fungal burden vs 24-hour group before start of therapy) (C. auris (DI 17-46); fungal burden arm, T-2307 3 mg/kg SC)	improvement in survival vs control (C. auris (DI 17-46); lower doses of T-2307 (0.75, 1.5 mg/kg SC once daily))	brain fungal burden (C. auris (DI 17-46); survival arm, day 21 or day mice succumbed, T-2307 3 mg/kg SC, control 6.31) [log10 CFU/g]	kidney fungal burden (C. auris (DI 17-46); survival arm, day 21 or day mice succumbed, T-2307 3 mg/kg SC) [log10 CFU/g]	percent survival (C. auris (DI 17-46); caspofungin 10 mg/kg IP once daily for 7 days) [%]	brain fungal burden (C. auris (DI 17-46); fungal burden arm, day 8 post-inoculation, caspofungin 10 mg/kg IP, control 5.88) [log10 CFU/g]	kidney fungal burden (mean) (C. auris (DI 17-46); fungal burden arm, day 8 post-inoculation, caspofungin 10 mg/kg IP) [log10 CFU/g]	brain fungal burden (C. auris (DI 17-46); survival arm, day 21 or day mice succumbed, caspofungin 10 mg/kg IP, control 6.31) [log10 CFU/g]	kidney fungal burden (C. auris (DI 17-46); survival arm, day 21 or day mice succumbed, caspofungin 10 mg/kg IP) [log10 CFU/g]
OC(Cn1cncn1)(Cn1cncn1)c1ccc(F)cc1F [Fluconazole, fluconazole]	4 (≈ 13.1 µM)	> 64	14.6 (≈ 47.7 µM)	> 64	did not improve survival	–	–	–	–	–	–	–	–	–	–	–	–	–	–	–
N=C(N)c1ccc(OCCCC2CCN(CCCOc3ccc(C(=N)N)cc3)CC2)cc1 [T-2307, 4-{3-[4-(3-{4-[amino(imino)methyl]phenoxy}propyl)-1-piperidinyl]propoxy}benzamidine]	0.015 (≈ 0.0343 µM)	0.015 (≈ 0.0343 µM)	0.011 (≈ 0.0251 µM)	< 0.008	–	≤0.008 to 0.015	> 4	> 4	2.19 (≈ 5 µM)	70	5.06	static in nature	did not improve survival	4.16	6.28	–	–	–	–	–
CC[C@H](C)C[C@H](C)CCCCCCCCC(=O)N[C@H]1C[C@@H](O)[C@@H](NCCN)NC(=O)[C@@H]2[C@@H](O)CCN2C(=O)[C@H]([C@H](O)CCN)NC(=O)[C@H]([C@H](O)[C@@H](O)c2ccc(O)cc2)NC(=O)[C@@H]2C[C@@H](O)CN2C(=O)[C@H]([C@@H](C)O)NC1=O [Caspofungin, caspofungin]	0.25 (≈ 0.229 µM)	0.5 (≈ 0.457 µM)	0.24 (≈ 0.22 µM)	0.25 (≈ 0.229 µM)	–	–	–	–	–	–	–	–	–	–	–	100	4.45	3.21	2.51	3.11
